# Experimental data taken from patent US20230167149A1, “CD33 LIGANDS SUITABLE FOR INCORPORATION INTO CARRIERS” (GLYCOMIMETICS, INC., priority 2020, published 2023).
# Target: T1, CD33 (Homo sapiens, UniProt P20138)
# T1 construct: purchased BioLegend 750106
# Experiment: CD33 competitive binding assay
# Conditions: immobilized CD33-Fc; competition with Neu5Acα2-3Galβ1-3GalNAc-PAA-biotin; TMB readout at 450 nm
# Method: The assay to screen for and characterize glycomimetic ligands of CD33 is a competitive binding assay, which allows the determination of IC50 values. CD33-Fc (BioLegend catalog item 750106) was immobilized in 96 well microtiter plates by incubation at 4° C. overnight. To reduce non-specific binding, bovine serum albumin was added to each well and incubated at room temperature for 2 hours. The plate was washed and serial dilutions of the test compounds were added to the wells in the presence of biotinylated polyacrylamide conjugated with Neu5Acα2-3Galβ1-3GalNAc-PAA-biotin (GlycoTech catalog item 01-088). After incubation at room temperature for 2 hours and washing, streptavidin/horseradish peroxidase was added to each well and incubated at room temperature for 30 minutes followed by an additional wash.
# To determine the amount of glycopolymer bound to the immobilized CD33, the peroxidase substrate 3.3′.5.5′ tetramethylbenzidine (TMB) was added. After 5 minutes, the enzyme reaction was stopped by the addition of H3PO4 and the absorbance of light at a wavelength of 450 nm was determined. The concentration of test compound required to inhibit binding by 50% was determined and reported as the IC50 value.
# T1 sequence (P20138 18-364): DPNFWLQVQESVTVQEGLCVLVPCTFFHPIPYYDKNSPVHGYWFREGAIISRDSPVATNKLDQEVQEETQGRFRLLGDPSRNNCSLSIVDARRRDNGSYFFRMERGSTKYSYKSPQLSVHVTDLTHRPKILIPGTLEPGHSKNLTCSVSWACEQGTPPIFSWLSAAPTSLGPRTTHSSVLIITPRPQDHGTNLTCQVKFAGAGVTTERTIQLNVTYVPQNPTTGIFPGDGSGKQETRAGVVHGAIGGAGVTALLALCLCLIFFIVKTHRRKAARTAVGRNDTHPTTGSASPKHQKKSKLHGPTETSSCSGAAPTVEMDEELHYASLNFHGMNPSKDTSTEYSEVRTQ
compound,measurement,value
CCCNC(=O)COC1C[C@](OCCCn2cc(-c3ccccc3)nn2)(C(=O)O)OC([C@H](O)[C@H](O)CNC(=O)c2cc(C)c(O)c(C)c2)[C@@H]1NC(=O)Cn1cc(C2CCCCC2)nn1 (stereo partly shown) [Compound 193],IC50,40 µM
